Among the data in ChEMBL document CHEMBL4715827, “Structure-guided design of pyridoclax derivatives based on Noxa / Mcl-1 interaction mode” (Eur J Med Chem, 2018) are Activity values, retold here.

A short description of data set [1]: Pro-apoptotic activity in human IGROV1-R10 cells assessed as accumulation at sub G1 phase at 10 uM incubated for 24 hrs by propidium iodide staining based flow cytometry analysis (reference value: 2 % ). The format is functional.
Data set [2] can be described thus: Pro-apoptotic activity in human IGROV1-R10 cells assessed as accumulation at sub G1 phase at 15 uM incubated for 24 hrs by propidium iodide staining based flow cytometry analysis (reference value: 2 % ). It is filed as functional.
Data set [3] is described as follows: Pro-apoptotic activity in human IGROV1-R10 cells transfected with Bcl-xL siRNA assessed as accumulation at sub G1 phase at 15 uM incubated for 4 hrs by propidium iodide staining based flow cytometry analysis relative to control. It is filed as functional.
Data set [4] concerns IGROV1-R10. Briefly: Pro-apoptotic activity in human IGROV1-R10 cells transfected with Bcl-xL siRNA assessed as cleaved caspase-3 expression at 15 uM incubated for 8 hrs by Western blot analysis. It is filed as functional, cell-based.
A short description of data set [5]: Cytotoxicity against human AG1521 cells assessed as accumulation subG1 phase at 15 uM after 24 hrs in presence of ABT-737 by flow cytometry (reference value: 1.64%). It is filed as cell-based. The note with it: ag1521, 24 h.
Data set [6] can be described thus: Pro-apoptotic activity in human IGROV1-R10 cells transfected with Bax siRNA assessed as accumulation at sub G1 phase at 15 uM incubated for 24 hrs by propidium iodide staining based flow cytometry analysis (reference value: 3.2% ). The format is functional.
A short description of data set [7]: Pro-apoptotic activity in human IGROV1-R10 cells transfected with Bak siRNA assessed as accumulation at sub G1 phase at 15 uM incubated for 24 hrs in presence of ABT-737 by propidium iodide staining based flow cytometry analysis (reference value: 3.4% ). It is filed as functional.
The nature of data set [8]: Pro-apoptotic activity in human IGROV1-R10 cells transfected with Bak and Bax siRNA assessed as accumulation at sub G1 phase at 15 uM incubated for 24 hrs in presence of ABT-737 by propidium iodide staining based flow cytometry analysis (reference value: 4.3% ). It is filed as functional.
Data set [9] deals with IGROV1-R10. Briefly: Pro-apoptotic activity in human IGROV1-R10 cells transfected with Bak siRNA assessed as cleaved caspase-3 level at 15 uM incubated for 24 hrs in presence of ABT-737 by Western blot analysis. The format is functional, cell-based.

Calls of active or inactive are those of the source. The rule behind the calls is not given here.

Turning to `Cc1cc(-c2ncc(-c3cccnc3)cc2/C=C/c2ccccc2)cnc1-c1cccc(C/C(N)=N/O)c1`, the Activity is reported as 2.2% in [1]; 2.8% in data set [2]; 14.1% in [3]; 3.33% in data set [5]; 7% in [6]; 41% in [7]. Moreover, the Activity in data set [8] worked out at 27.9%. Further, in the data set with IGROV1-R10 [4], the result was Active. Moreover, the result in the data set on IGROV1-R10 [9] was inactive.
